# Values of other authors as cited in US20190230969A1, “COMPOSITION OF PURIFIED SOLUBLE MANNANS FOR DIETARY SUPPLEMENTS AND METHODS OF USE THEREOF” (priority 2010, published 2019).
# How the values were obtained:
# patients = conditions: in vivo
# [1] = tested on: normal and castrated rats; conditions: 10 mg/kg subcutaneously biweekly, 4 weeks
structure (smiles),measurement,setting,value
C[C@H]1O[C@H](O[C@H]2[C@H](O)[C@@H](O)[C@@H](O[C@H]3[C@H](O)[C@@H](O)C(O)O[C@@H]3CO)O[C@@H]2CO)[C@H](O)[C@@H](O)[C@@H]1N[C@H]1C=C(CO)[C@@H](O)[C@H](O)[C@H]1O (some centres unmarked) [acarbose],"gastrointestinal disturbances (flatulence, abdominal distension, borborygmus, diarrhea)",patients,High incidence of gastrointestinal disturbances
C[C@]12CC[C@H]3[C@@H](CCC4=CC(=O)CC[C@@]43C)[C@@H]1CC[C@@H]2O [testosterone],effect on BUN and testosterone levels,[1],increases
